Measurements as given in article PMC2680961, “Homologous desensitization of signalling by the alpha (α) isoform of the human thromboxane A2 receptor: A specific role for nitric oxide signalling” (Biochimica et Biophysica Acta, 2007).

Legend:
TPα^Δ336 = molecular target: T1, TPα^Δ336 (Homo sapiens, UniProt P21731); test: Intracellular calcium mobilization, HEK.TPα^Δ336 cells; format: cell-based; details: for Δ[Ca2+]i, U46619-induced: HEK.TPα^Δ336
T1 construct: expressed in transfected cells
T1 sequence (P21731 1-335): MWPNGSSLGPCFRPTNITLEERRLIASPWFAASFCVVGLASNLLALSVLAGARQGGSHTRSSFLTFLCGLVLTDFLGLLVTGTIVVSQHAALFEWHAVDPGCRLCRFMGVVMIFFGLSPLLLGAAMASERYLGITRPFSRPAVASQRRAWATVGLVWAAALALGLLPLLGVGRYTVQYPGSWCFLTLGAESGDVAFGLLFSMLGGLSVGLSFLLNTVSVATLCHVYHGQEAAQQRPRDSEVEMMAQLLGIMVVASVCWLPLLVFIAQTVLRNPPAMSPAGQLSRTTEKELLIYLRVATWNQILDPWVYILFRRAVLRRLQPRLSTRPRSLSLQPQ
Method: (§1) Measurement of intracellular calcium mobilization ([Ca^2+]i) in FURA2/AM preloaded HEK 293 cell lines (2 × 10^6 cells/dish), each transiently co-transfected with pADVA (10 μg), and pCMV:Gαq (25 μg), was carried out as previously described. To investigate the effect of GRK2/βARK1 on TP-mediated [Ca^2+]i mobilization, HEK.TPα or HEK.TPβ cells (2 × 10^6 cells/dish) were co-transfected with pADVA (10 μg), pCMV:Gαq (25 μg) along with pRK5:βARK1^495–689 (25 μg), encoding a dominant negative form of GRK2/βARK1[39]. Approximately 48 h post-transfection, cells were harvested by scraping, washed twice in ice-cold PBS and resuspended in HBSSHB (modified Ca^2+/Mg^2+-free Hank's buffered salt solution, containing […], pH 7.67, 0.1% bovine serum albumin (BSA)) buffer at 10^7 cells/ml and incubated in the dark with 5 μM FURA2/AM for 45 min at 37 °C. […] For each measurement of [Ca^2+]i mobilization, aliquots of cells were diluted to 0.825 × 10^6 cells/ml in HBSSHB, 1 mM CaCl2 and FURA2 fluorescence was recorded (2 ml aliquots of cells) at 37^ °C with gentle stirring with a Perkin Elmer-Cetus LS50-B spectrofluorometer at excitation wavelengths of 340 nm and 380 nm and emission wavelength of 510 nm, respectively.
(§2) Cells were stimulated with the TP agonist U46619 (1 μM) and changes in [Ca^2+]i mobilization were monitored as a function of time. To assess agonist-mediated homologous desensitization, cells (0.825 × 10^6 cells/ml; 2 ml per assay) were stimulated with 1 μM U46619 (Primary stimulation) or, as a control, with the vehicle for 4 min; thereafter, cells were collected by centrifugation (900×g, 5 min); were washed twice in 2 ml HBSSHB, 1 mM CaCl2; and finally resuspended in 2 ml HBSSHB,1 mM CaCl2 and were left to recover over various time intervals (ranging from 0 to 60 min); thereafter, cells re-stimulated with 1 μM U46619 (Secondary stimulation) and changes in [Ca^2+]i mobilization were monitored as a function of time. […]

eNOS = eNOS phosphorylation (anti-phospho eNOS^Ser1177 western blot); format: cell-based, human; details: HEK.TPα cells (also HEK 293, HEK.TPβ); 1 μM U46619 or 10 U/ml Thrombin, 5 min, 37 °C
Method: In order to assess eNOS phosphorylation, HEK.TPα, HEK.TPβ or HEK 293 cells (2 × 10^6 cells/10-cm dish) were plated some 48 h prior to experimentation. Cells were incubated with vehicle, 1 μM U46619 or 10 U/ml Thrombin for 5 min at 37 °C and aliquots of whole cell protein (100 μg/lane) were analysed by SDS-PAGE/western blot. Blots were initially screened using the anti-phospho eNOS^1177 as per supplier's instructions (Cell Signalling Technology) and, following stripping, were subsequently re-screened using the anti-eNOS (Transduction Laboratories).

TPα^S331,T337,S340A = molecular target: T2, TPα^S331,T337,S340A (Homo sapiens, UniProt P21731, S331A/S340A/T337A); test: Intracellular calcium mobilization, HEK.TP^S331,T337,S340A cells; format: cell-based; details: for Δ[Ca2+]i, U46619-induced: HEK.TP^S331,T337,S340A
T2 construct: expressed in transfected cells
T2 sequence (P21731 1-343 S331A/T337A/S340A): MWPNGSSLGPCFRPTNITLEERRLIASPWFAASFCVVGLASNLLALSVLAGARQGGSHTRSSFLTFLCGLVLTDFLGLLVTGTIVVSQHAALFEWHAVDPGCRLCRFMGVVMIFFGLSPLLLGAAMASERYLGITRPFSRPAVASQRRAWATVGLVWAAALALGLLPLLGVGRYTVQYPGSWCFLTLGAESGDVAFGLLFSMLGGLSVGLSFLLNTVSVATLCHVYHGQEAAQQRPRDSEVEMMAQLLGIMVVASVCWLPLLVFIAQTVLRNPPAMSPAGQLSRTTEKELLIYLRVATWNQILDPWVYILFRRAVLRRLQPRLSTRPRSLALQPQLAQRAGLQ
Method: as §1, §2

[1] = secondary 1 μM U46619 at 15 min

- Δ[Ca2+]i, U46619-induced (TPα^Δ336; primary 1 μM U46619 4 min): 240 ± 14 nM
- Δ[Ca2+]i, U46619-induced (TPα^Δ336; [1]): 50 ± 3.4 nM
- secondary U46619 [Ca2+]i response relative to primary response (TPα^Δ336; TPα^Δ336): 20%
- Δ[Ca2+]i, U46619-induced (TPα^S331,T337,S340A; primary 1 μM U46619 4 min): 195 ± 12 nM
- Δ[Ca2+]i, U46619-induced (TPα^S331,T337,S340A; [1]): 67 ± 8.2 nM
- secondary U46619 [Ca2+]i response relative to primary response (TPα^S331,T337,S340A; TPα^S331,T337,S340A): ~34%
Compound: CCCCC[C@H](O)/C=C/[C@@H]1[C@@H](C/C=C\CCCC(=O)O)[C@H]2CO[C@@H]1C2 [U46619]
- eNOS phosphorylation at Ser^1177 (eNOS): rapid phosphorylation-dependent activation of eNOS
